Data on one compound can be found in PMC6944674, “Comparison of the Hepatotoxic Potential of Two Treatments for Autosomal-Dominant Polycystic Kidney DiseaseUsing Quantitative Systems Toxicology Modeling” (Pharmaceutical Research, 2020).

Like-named read-outs stand apart in the source and are kept apart here.

The subject of one series is RNS/ROS formation. In words: RNS/ROS production parameter from DILIsym simulation of ROS data. The conditions noted are these: calculated from 24 h HepG2 ROS data; higher = higher risk. As to the method: To define the DILIsym parameter values for lixivaptan- and WAY-138451-mediated oxidative stress, the 24 h in vitro data were simulated within DILIsym (Fig. 5). The intracellular concentration of each compound was measured by LC/MS/MS analysis. For lixivaptan, the measured intracellular concentration at each dose was used to parameterize the model. For WAY-138451, however, the LC/MS/MS data was inconsistent at low doses due to lower limit of detection issues. Thus, the mean measured cell-to-nominal-media ratio (0.672) was used to estimate intracellular concentrations at each dose. Reproduction of lixivaptan- and WAY-138451-mediated induction of oxidative stress defined the relationship between liver compound concentration and ROS formation with the reactive nitrogen/oxygen species (RNS/ROS) production rate constants listed in Table 2. […]
To define the DILIsym parameter values for lixivaptan- and WAY-138451-mediated oxidative stress, the 24 hour in vitro data were simulated within DILIsym (Figure B12). The intracellular concentration of each compound was measured by LC/MS/MS analysis. For lixivaptan, the measured intracellular concentration at each dose was used to parameterize the model. […] Thus, the mean measured cell-to-nominal-media ratio (0.672) was used to estimate intracellular concentrations at each dose. […]

Series [1] has as its system HepG2 cells. In words: ROS formation by DHE fluorescence (high-content imaging). Format: cell-based. The conditions noted are these: 24 hour incubation. As to the method: To assess the potential for lixivaptan and its metabolites to induce oxidative stress, assays to measure formation of reactive oxygen species (ROS) were conducted by Cyprotex and overseen by the authors. HepG2 cells were cultured in triplicate in the presence of each test article for 1 or 24 hours; the range of concentrations used for each test article is listed in Table B1. ROS formation was assayed by DHE fluorescence. Two independent studies in triplicate were conducted on HepG2 cells.

The subject of series [2] is HepG2 cells. The series is described as follows: Seahorse XFe96 cellular respiration assay (oxygen consumption rate). Format: cell-based. The following applies: 24 hour incubation. The protocol: To assess the potential effect of the five test articles on mitochondrial function, cellular respiration assays using a Seahorse XFe96 Flux Analyzer were conducted by Cyprotex (Macclesfield, UK) and overseen by the authors. HepG2 cells were incubated with each test article for 1 or 24 hours and tested for an effect on cellular respiration by measuring the oxygen consumption rate (OCR). Each study was conducted in triplicate. Importantly, the 1 hour culture was conducted in the absence of serum (i.e. no serum protein binding) as is standard for the Seahorse Analyzer assay conditions.

The conditions of series [3]: cited from earlier work.
Another series deals with T1, human BSEP (Homo sapiens, UniProt O95342).
T1 construct: host or cells: HEK-293 cell membrane vesicles
T1 sequence (O95342 whole entry): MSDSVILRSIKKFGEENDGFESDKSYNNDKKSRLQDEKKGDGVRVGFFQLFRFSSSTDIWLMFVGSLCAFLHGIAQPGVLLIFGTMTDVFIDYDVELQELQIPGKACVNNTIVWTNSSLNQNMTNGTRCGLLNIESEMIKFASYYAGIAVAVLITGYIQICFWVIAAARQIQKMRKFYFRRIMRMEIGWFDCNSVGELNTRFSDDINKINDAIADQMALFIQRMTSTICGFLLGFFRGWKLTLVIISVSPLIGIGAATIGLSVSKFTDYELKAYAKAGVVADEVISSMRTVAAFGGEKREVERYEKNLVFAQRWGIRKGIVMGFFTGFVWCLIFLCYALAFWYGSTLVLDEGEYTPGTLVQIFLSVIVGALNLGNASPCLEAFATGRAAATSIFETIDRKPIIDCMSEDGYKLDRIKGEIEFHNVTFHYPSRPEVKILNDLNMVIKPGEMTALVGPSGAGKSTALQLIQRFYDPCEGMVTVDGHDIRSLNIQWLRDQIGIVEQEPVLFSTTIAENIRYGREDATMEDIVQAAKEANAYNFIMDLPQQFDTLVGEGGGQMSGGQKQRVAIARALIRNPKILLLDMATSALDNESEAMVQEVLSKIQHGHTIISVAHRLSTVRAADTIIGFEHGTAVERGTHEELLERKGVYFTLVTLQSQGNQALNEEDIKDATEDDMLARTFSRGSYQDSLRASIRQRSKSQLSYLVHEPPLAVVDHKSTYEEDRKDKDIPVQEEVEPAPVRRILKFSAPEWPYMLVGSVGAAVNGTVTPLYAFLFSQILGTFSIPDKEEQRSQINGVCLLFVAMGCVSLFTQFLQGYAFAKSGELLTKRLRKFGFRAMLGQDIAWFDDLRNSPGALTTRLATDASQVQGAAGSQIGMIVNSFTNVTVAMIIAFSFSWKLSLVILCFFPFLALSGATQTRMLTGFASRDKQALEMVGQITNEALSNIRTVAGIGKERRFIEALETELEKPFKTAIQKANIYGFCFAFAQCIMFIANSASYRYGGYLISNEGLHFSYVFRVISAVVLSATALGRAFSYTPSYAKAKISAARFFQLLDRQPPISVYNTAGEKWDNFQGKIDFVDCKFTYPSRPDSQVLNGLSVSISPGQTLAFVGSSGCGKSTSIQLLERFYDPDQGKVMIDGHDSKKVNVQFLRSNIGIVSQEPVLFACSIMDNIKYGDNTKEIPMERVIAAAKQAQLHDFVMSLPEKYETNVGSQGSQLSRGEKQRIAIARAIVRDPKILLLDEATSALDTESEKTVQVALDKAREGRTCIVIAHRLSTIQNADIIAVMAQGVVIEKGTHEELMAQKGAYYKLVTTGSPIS
The series is described as follows: BSEP vesicular transport inhibition assay (taurocholate, HEK-293 cell membrane vesicles). Format: biochemical. The protocol:
The functional impact of lixivaptan, its three metabolites and tolvaptan on the human ABC (efflux) transporters BSEP and MRP3 and MRP4 was assessed for this project using in vitro vesicular transport inhibition assays. The inhibition of the human SLC (uptake) transporter NTCP was assessed using CHO cells stably expressing human NTCP. The concentration ranges used for the five test articles was determined based on the solubility of each compound in the assay solution. All transporter inhibition assays were conducted in triplicate by Solvo Biotechnology (Szeged, Hungary).
For the simulation of bile acid transporter inhibition by lixivaptan in DILIsym, parameter values were selected for BSEP canalicular transport, basolateral transport (encompassing both MRP3 and MRP4), and NTCP transport. The parameter values for each include the inhibition constant, defined as the IC50 or Ki value, and the inhibition type, defined as competitive, non-competitive, or mixed inhibition.
In vesicular transport inhibition assays, lixivaptan and its metabolites each inhibited BSEP-mediated probe substrate accumulation (Figure B1) and MRP4-mediated probe substrate accumulation (Figure B2) dose-dependently.
Figure B1. […] See Appendix A for more details.

Series [4] relates to mitochondrial electron transport chain. In words: ETC inhibition parameter from MITOsym simulation of OCR data, translated to DILIsym. The conditions noted are these: calculated from 24 h HepG2 OCR data and measured intracellular concentrations; lower = higher risk. The source says: The parameters calculated in this manner were then translated to DILIsym parameters using a conversion factor based on the relative activity of rotenone in the in vitro vs. in vivo environment (7).

The conditions of series [5]: cited from earlier work. This is another data set of the same source.
[6] abbreviates: End Stage Renal Disease patients, ref personal communication, proprietary data not shown.

Take `Cc1ccc(F)cc1C(=O)Nc1ccc(C(=O)N2Cc3cccn3Cc3ccccc32)c(Cl)c1` [Lixivaptan, lixivaptan]: the “RNS/ROS production rate constant (DILIsym parameter)” value in the series on RNS/ROS formation was 0.151 M⁻¹ s⁻¹. Moreover, the “induction of oxidative stress in HepG2 cells” value in the series on HepG2 cells [1] was “evidence for induction of oxidative stress”. In addition, the “effect on HepG2 oxygen consumption rate (mitochondrial respiration)” value in the series with HepG2 cells [2] is recorded as “reduce the HepG2 oxygen consumption rate (OCR) in a dose-dependent manner”. The “Clinical ALT >3X ULN” value in series [3] (100 mg BID, 60 days, hyponatremia protocol, ref study CK-LX3401 (not shown)) is recorded as “On treatment similar to placebo**”. Moreover, in series [3] (400 mg BID, 7 days, ref clinical trial CK-LX1403), the “Clinical ALT >3X ULN” value is “no individuals out of 67 showed elevated ALT”. Besides, at human BSEP (read-out: BSEP inhibition constant (IC50)), the IC50 – broadly, the midpoint of a concentration-inhibition curve – worked out at 15 µM. In addition, at human BSEP (vesicular transport inhibition assay), the “inhibition of BSEP-mediated probe substrate accumulation” value was “inhibited”. Also, the “Coefficient for ETC inhibition (DILIsym parameter)” value in series [4] is 535 µM. In addition, the “time to steady-state concentration” value in series [5] (100 mg BID, clinical, ref proprietary data not shown) is on record as 6 days. Also, the “recovery in single-dose mass balance study” value in series [5] (100 mg single dose, after 7 days, ref clinical study 0892A1-109-US) is given as 84%. For the same compound, in series [5] (setting [6]), the “decrease of exposure (AUC) in renal failure patients vs subjects with normal renal function” value is “approximately 30%” and the “decrease of peak concentration (Cmax) in renal failure patients vs subjects with normal renal function” value is recorded as “approximately 30%”. Moreover, the Cmax – broadly, the highest concentration seen after dosing – in series [5] (after 7 days of 100 mg BID, ref clinical study CK-LX1403 (data not shown)) is 2000 nM.
